Laboratory results: PubChem BioAssay (NCI)
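Grown in 96-well plates, cells were treated for 48 hours with each compound at five concentrations. Insufficient inhibition: endpoint recorded as highest concentration tested. At the TGI there is no net growth.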

How the values were obtained:
Assay in all cases: DTP human tumour cell line panel, 48 h
CCRF-CEM leukemia = tested on: CCRF-CEM leukemia
KM12 colon = tested on: KM12 colon
SF-539 CNS = tested on: SF-539 CNS
MOLT-4 leukemia = tested on: MOLT-4 leukemia
SR leukemia = tested on: SR leukemia
OVCAR-3 ovarian = tested on: OVCAR-3 ovarian
NCI-H460 lung = tested on: NCI-H460 lung
NCI-H23 lung = tested on: NCI-H23 lung
NCI-H522 lung = tested on: NCI-H522 lung
A498 renal = tested on: A498 renal
SN12C renal = tested on: SN12C renal
UACC-257 melanoma = tested on: UACC-257 melanoma
786-0 renal = tested on: 786-0 renal
HT29 colon = tested on: HT29 colon
HL-60(TB) leukemia = tested on: HL-60(TB) leukemia
UO-31 renal = tested on: UO-31 renal
IGROV1 ovarian = tested on: IGROV1 ovarian
M19-MEL melanoma = tested on: M19-MEL melanoma
COLO 205 colon = tested on: COLO 205 colon
M14 melanoma = tested on: M14 melanoma
NCI-H226 lung = tested on: NCI-H226 lung
OVCAR-5 ovarian = tested on: OVCAR-5 ovarian
SNB-78 CNS = tested on: SNB-78 CNS
OVCAR-8 ovarian = tested on: OVCAR-8 ovarian
OVCAR-4 ovarian = tested on: OVCAR-4 ovarian
SF-268 CNS = tested on: SF-268 CNS
HOP-62 NSCLC = tested on: HOP-62 NSCLC
TK-10 renal = tested on: TK-10 renal
SK-MEL-5 melanoma = tested on: SK-MEL-5 melanoma
DMS 273 small cell lung = tested on: DMS 273 small cell lung
SW-620 colon = tested on: SW-620 colon
UACC-62 melanoma = tested on: UACC-62 melanoma
DLD-1 colon = tested on: DLD-1 colon
HOP-92 NSCLC = tested on: HOP-92 NSCLC
SK-OV-3 ovarian = tested on: SK-OV-3 ovarian
EKVX NSCLC = tested on: EKVX NSCLC
LOX IMVI melanoma = tested on: LOX IMVI melanoma
HCT-15 colon = tested on: HCT-15 colon
A549 NSCLC = tested on: A549 NSCLC
MALME-3M melanoma = tested on: MALME-3M melanoma
U251 CNS = tested on: U251 CNS
RPMI-8226 leukemia = tested on: RPMI-8226 leukemia
KM20L2 colon = tested on: KM20L2 colon
CAKI-1 renal = tested on: CAKI-1 renal
ACHN renal = tested on: ACHN renal
SNB-75 CNS = tested on: SNB-75 CNS
HOP-18 NSCLC = tested on: HOP-18 NSCLC
DMS 114 small cell lung = tested on: DMS 114 small cell lung
SF-295 CNS = tested on: SF-295 CNS
SNB-19 CNS = tested on: SNB-19 CNS
LXFL 529 NSCLC = tested on: LXFL 529 NSCLC
HCC-2998 colon = tested on: HCC-2998 colon
SK-MEL-28 melanoma = tested on: SK-MEL-28 melanoma
HCT-116 colon = tested on: HCT-116 colon
K-562 leukemia = tested on: K-562 leukemia
SK-MEL-2 melanoma = tested on: SK-MEL-2 melanoma

Q: `COc1ccc(C(=O)C(C(=O)C(=O)NC2C3CC4CC(C3)CC2C4)c2ccc(OC)cc2)cc1` (configuration not stated) was tested. Which TGI (CCRF-CEM leukemia) did it give?
A: > 100 µM

Q: What about the TGI (KM12 colon) of the same compound?
A: > 100 µM

Q: And the TGI (SF-539 CNS)?
A: > 100 µM

Q: What about the TGI (MOLT-4 leukemia) of the same compound?
A: > 100 µM

Q: And the TGI (SR leukemia)?
A: > 100 µM

Q: What about the TGI (OVCAR-3 ovarian) of the same compound?
A: > 100 µM

Q: What about the TGI (NCI-H460 lung) of the same compound?
A: > 100 µM

Q: What about the TGI (NCI-H23 lung) of the same compound?
A: > 100 µM

Q: What about the TGI (NCI-H522 lung) of the same compound?
A: > 100 µM

Q: And the TGI (A498 renal)?
A: > 100 µM

Q: And the TGI (SN12C renal)?
A: > 100 µM

Q: And the TGI (UACC-257 melanoma)?
A: > 100 µM

Q: And the TGI (786-0 renal)?
A: > 100 µM

Q: What about the TGI (HT29 colon) of the same compound?
A: > 100 µM

Q: And the TGI (HL-60(TB) leukemia)?
A: > 100 µM

Q: And the TGI (UO-31 renal)?
A: > 100 µM

Q: And the TGI (IGROV1 ovarian)?
A: > 100 µM

Q: What about the TGI (M19-MEL melanoma) of the same compound?
A: > 100 µM

Q: What about the TGI (COLO 205 colon) of the same compound?
A: > 100 µM

Q: What about the TGI (M14 melanoma) of the same compound?
A: > 100 µM

Q: What about the TGI (NCI-H226 lung) of the same compound?
A: > 100 µM

Q: What about the TGI (OVCAR-5 ovarian) of the same compound?
A: > 100 µM

Q: And the TGI (SNB-78 CNS)?
A: > 100 µM

Q: What about the TGI (OVCAR-8 ovarian) of the same compound?
A: > 100 µM

Q: And the TGI (OVCAR-4 ovarian)?
A: > 100 µM

Q: And the TGI (SF-268 CNS)?
A: > 100 µM

Q: And the TGI (HOP-62 NSCLC)?
A: > 100 µM

Q: And the TGI (TK-10 renal)?
A: > 100 µM

Q: What about the TGI (SK-MEL-5 melanoma) of the same compound?
A: > 100 µM

Q: And the TGI (DMS 273 small cell lung)?
A: > 100 µM

Q: What about the TGI (SW-620 colon) of the same compound?
A: > 100 µM

Q: What about the TGI (UACC-62 melanoma) of the same compound?
A: > 100 µM

Q: What about the TGI (DLD-1 colon) of the same compound?
A: > 100 µM

Q: And the TGI (HOP-92 NSCLC)?
A: > 100 µM

Q: What about the TGI (SK-OV-3 ovarian) of the same compound?
A: > 100 µM

Q: What about the TGI (EKVX NSCLC) of the same compound?
A: > 100 µM

Q: And the TGI (LOX IMVI melanoma)?
A: > 100 µM

Q: What about the TGI (HCT-15 colon) of the same compound?
A: > 100 µM

Q: What about the TGI (A549 NSCLC) of the same compound?
A: > 100 µM

Q: And the TGI (MALME-3M melanoma)?
A: > 100 µM

Q: And the TGI (U251 CNS)?
A: > 100 µM

Q: And the TGI (RPMI-8226 leukemia)?
A: > 100 µM

Q: What about the TGI (KM20L2 colon) of the same compound?
A: > 100 µM

Q: What about the TGI (CAKI-1 renal) of the same compound?
A: > 100 µM

Q: What about the TGI (ACHN renal) of the same compound?
A: > 100 µM

Q: What about the TGI (SNB-75 CNS) of the same compound?
A: > 100 µM

Q: What about the TGI (HOP-18 NSCLC) of the same compound?
A: > 100 µM

Q: What about the TGI (DMS 114 small cell lung) of the same compound?
A: > 100 µM

Q: What about the TGI (SF-295 CNS) of the same compound?
A: > 100 µM

Q: What about the TGI (SNB-19 CNS) of the same compound?
A: > 100 µM

Q: What about the TGI (LXFL 529 NSCLC) of the same compound?
A: > 100 µM

Q: And the TGI (HCC-2998 colon)?
A: > 100 µM

Q: And the TGI (SK-MEL-28 melanoma)?
A: > 100 µM

Q: And the TGI (HCT-116 colon)?
A: > 100 µM

Q: What about the TGI (K-562 leukemia) of the same compound?
A: > 100 µM

Q: What about the TGI (SK-MEL-2 melanoma) of the same compound?
A: > 100 µM

Q: `CCOC(=O)NC(=O)c1cn(CCCOC(=O)NCCCCCCNC(=O)OCCCn2cc(C(=O)NC(=O)OCC)c(=O)[nH]c2=O)c(=O)[nH]c1=O` was tested. Which TGI (CCRF-CEM leukemia) did it give?
A: > 100 µM

Q: And the TGI (SF-539 CNS)?
A: 44.5 µM

Q: And the TGI (MOLT-4 leukemia)?
A: 90.3 µM

Q: What about the TGI (OVCAR-3 ovarian) of the same compound?
A: 42.4 µM

Q: What about the TGI (NCI-H460 lung) of the same compound?
A: > 100 µM

Q: What about the TGI (A498 renal) of the same compound?
A: 44.1 µM

Q: And the TGI (SN12C renal)?
A: > 100 µM

Q: What about the TGI (UACC-257 melanoma) of the same compound?
A: 37 µM

Q: And the TGI (786-0 renal)?
A: 49.9 µM

Q: And the TGI (HT29 colon)?
A: > 100 µM

Q: What about the TGI (HL-60(TB) leukemia) of the same compound?
A: 41.7 µM

Q: What about the TGI (IGROV1 ovarian) of the same compound?
A: > 100 µM

Q: And the TGI (M19-MEL melanoma)?
A: > 100 µM

Q: What about the TGI (COLO 205 colon) of the same compound?
A: 41 µM

Q: And the TGI (M14 melanoma)?
A: 35.4 µM

Q: What about the TGI (SNB-78 CNS) of the same compound?
A: > 100 µM

Q: And the TGI (OVCAR-8 ovarian)?
A: > 100 µM

Q: What about the TGI (OVCAR-4 ovarian) of the same compound?
A: 29.6 µM

Q: What about the TGI (HOP-62 NSCLC) of the same compound?
A: > 100 µM

Q: What about the TGI (TK-10 renal) of the same compound?
A: 68.5 µM

Q: What about the TGI (SK-MEL-5 melanoma) of the same compound?
A: > 100 µM

Q: What about the TGI (DMS 273 small cell lung) of the same compound?
A: > 100 µM

Q: What about the TGI (SW-620 colon) of the same compound?
A: 93.6 µM

Q: What about the TGI (UACC-62 melanoma) of the same compound?
A: 38.8 µM

Q: And the TGI (DLD-1 colon)?
A: > 100 µM

Q: What about the TGI (HOP-92 NSCLC) of the same compound?
A: 45.6 µM

Q: What about the TGI (SK-OV-3 ovarian) of the same compound?
A: > 100 µM

Q: And the TGI (EKVX NSCLC)?
A: > 100 µM

Q: And the TGI (LOX IMVI melanoma)?
A: > 100 µM

Q: What about the TGI (HCT-15 colon) of the same compound?
A: 65.1 µM

Q: And the TGI (A549 NSCLC)?
A: > 100 µM

Q: What about the TGI (U251 CNS) of the same compound?
A: 33.6 µM

Q: And the TGI (RPMI-8226 leukemia)?
A: 39.2 µM

Q: What about the TGI (KM20L2 colon) of the same compound?
A: > 100 µM

Q: And the TGI (CAKI-1 renal)?
A: 35 µM

Q: What about the TGI (ACHN renal) of the same compound?
A: 32.9 µM

Q: And the TGI (SNB-75 CNS)?
A: 45.2 µM

Q: And the TGI (HOP-18 NSCLC)?
A: > 100 µM

Q: What about the TGI (DMS 114 small cell lung) of the same compound?
A: 34.1 µM

Q: And the TGI (SF-295 CNS)?
A: 49.4 µM

Q: What about the TGI (SNB-19 CNS) of the same compound?
A: 77.6 µM

Q: What about the TGI (LXFL 529 NSCLC) of the same compound?
A: > 100 µM

Q: What about the TGI (HCC-2998 colon) of the same compound?
A: > 100 µM

Q: What about the TGI (SK-MEL-28 melanoma) of the same compound?
A: 88.9 µM

Q: And the TGI (HCT-116 colon)?
A: > 100 µM

Q: And the TGI (K-562 leukemia)?
A: 39.8 µM
